Results as given in ChEMBL document CHEMBL1817594, “Multi-target strategy to address Alzheimer's disease: design, synthesis and biological evaluation of new tacrine-based dimers” (Eur J Med Chem, 2011).

Tests used:
[1] = target: T1, Acetylcholinesterase (Homo sapiens, UniProt P22303)
Description: Inhibition of human serum recombinant AChE using acetylthiocholine iodide as substrate preincubated for 20 mins by Ellman's method

[2] = target: Cholinesterase (Homo sapiens, UniProt P06276)
Description: Inhibition of human serum recombinant BChE using butyrylthiocholine iodide as substrate preincubated for 20 mins by Ellman's method

[3] = target: T2, Beta-secretase 1 (Homo sapiens, UniProt P56817); test: Inhibition of BACE1 expressed in baculovirus assessed as inhibition of amyloid beta-42 production at 10 uM after 60 mins by spectrofluorometric assay
T2 sequence (P56817 whole entry): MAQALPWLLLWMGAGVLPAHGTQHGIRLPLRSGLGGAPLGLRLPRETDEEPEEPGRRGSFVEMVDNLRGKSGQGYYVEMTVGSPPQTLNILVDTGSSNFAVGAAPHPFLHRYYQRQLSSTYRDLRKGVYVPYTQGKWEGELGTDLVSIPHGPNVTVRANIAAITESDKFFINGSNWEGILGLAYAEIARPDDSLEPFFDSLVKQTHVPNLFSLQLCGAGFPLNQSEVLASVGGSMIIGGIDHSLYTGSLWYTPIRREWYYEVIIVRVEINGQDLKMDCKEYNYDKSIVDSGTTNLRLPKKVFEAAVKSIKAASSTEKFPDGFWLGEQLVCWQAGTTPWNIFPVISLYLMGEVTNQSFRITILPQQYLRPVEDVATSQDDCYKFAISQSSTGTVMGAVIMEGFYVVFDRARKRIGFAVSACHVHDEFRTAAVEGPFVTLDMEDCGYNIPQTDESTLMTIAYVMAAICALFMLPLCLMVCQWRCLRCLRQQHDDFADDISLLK

[4] = target: T2, Beta-secretase 1
Description: Inhibition of BACE1 expressed in baculovirus assessed as inhibition of amyloid beta-42 production after 60 mins by spectrofluorometric assay

[5] = target: T1, Acetylcholinesterase; test: Mixed-type inhibition of human AChE assessed as hydrolysis of acetylthiocholine by Lineweaver-Burk plot analysis

T1 sequence (P22303 whole entry): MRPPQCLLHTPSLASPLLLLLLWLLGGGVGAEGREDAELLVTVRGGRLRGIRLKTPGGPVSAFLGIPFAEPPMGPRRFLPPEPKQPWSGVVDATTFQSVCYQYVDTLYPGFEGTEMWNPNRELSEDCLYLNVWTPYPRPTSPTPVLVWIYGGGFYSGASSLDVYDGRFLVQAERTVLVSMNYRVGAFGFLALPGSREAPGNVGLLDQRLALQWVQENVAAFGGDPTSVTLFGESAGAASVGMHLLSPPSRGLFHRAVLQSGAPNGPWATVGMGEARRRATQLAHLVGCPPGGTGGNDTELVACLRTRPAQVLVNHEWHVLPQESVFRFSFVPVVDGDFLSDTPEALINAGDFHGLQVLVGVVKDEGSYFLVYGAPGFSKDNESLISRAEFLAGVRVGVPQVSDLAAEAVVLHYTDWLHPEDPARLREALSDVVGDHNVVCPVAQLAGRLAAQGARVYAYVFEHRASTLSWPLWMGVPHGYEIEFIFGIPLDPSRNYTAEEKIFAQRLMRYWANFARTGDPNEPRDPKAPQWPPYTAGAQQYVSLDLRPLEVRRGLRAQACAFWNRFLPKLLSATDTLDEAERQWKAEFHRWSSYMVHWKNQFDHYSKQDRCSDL
Cholinesterase, sequence (P06276 whole entry): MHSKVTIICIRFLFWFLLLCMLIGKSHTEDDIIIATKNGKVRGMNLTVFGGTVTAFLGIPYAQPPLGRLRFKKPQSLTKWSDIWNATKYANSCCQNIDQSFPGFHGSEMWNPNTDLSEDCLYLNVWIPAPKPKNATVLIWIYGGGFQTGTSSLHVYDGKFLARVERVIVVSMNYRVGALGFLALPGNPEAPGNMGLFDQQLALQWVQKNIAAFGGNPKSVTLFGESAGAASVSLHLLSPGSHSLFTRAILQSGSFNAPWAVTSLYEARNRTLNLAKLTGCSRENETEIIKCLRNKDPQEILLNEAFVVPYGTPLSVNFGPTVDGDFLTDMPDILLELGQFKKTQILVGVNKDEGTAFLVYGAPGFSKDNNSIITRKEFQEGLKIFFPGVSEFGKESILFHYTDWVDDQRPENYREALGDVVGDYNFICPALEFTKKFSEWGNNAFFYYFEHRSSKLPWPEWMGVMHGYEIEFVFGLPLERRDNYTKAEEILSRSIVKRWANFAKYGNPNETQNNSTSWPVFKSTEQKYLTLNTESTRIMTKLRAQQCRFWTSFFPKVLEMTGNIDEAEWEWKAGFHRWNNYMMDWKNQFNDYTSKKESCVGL

Row | SMILES | IC50 [1] | IC50 [2] | inhibition [3] | IC50 [4] | Ki [5]
1 | Clc1ccc2c(NCCCCCCCNc3c4c(nc5cc(Cl)ccc35)-c3ccccc3C4)c3c(nc2c1)CCCC3 | 0.0121 µM | 1.66 µM | – | – | –
2 | c1ccc2c(NCCCCCCCN3CCOCC3)c3c(nc2c1)CCCC3 | 0.0445 µM | 0.0905 µM | – | – | –
3 | Clc1ccc2c(NCCCCCCCNc3c4c(nc5ccccc35)-c3ccccc3C4)c3c(nc2c1)CCCC3 | 0.00105 µM | 0.0637 µM | 27% | 1 µM | 0.00101 µM
4 | c1ccc2c(c1)Cc1c-2nc2ccccc2c1NCCCCCCCNc1c2c(nc3ccccc13)CCCC2 | 0.0139 µM | 0.0248 µM | 27% | – | –
5 | c1ccc2c(NCCCCCCN3CCOCC3)c3c(nc2c1)CCCC3 | 0.0689 µM | 0.101 µM | – | – | –
6 | Clc1ccc2c(NCCCCCCCOc3cccc(-c4cc5ccccc5o4)c3)c3c(nc2c1)CCCC3 | 0.258 µM | 0.0414 µM | – | – | –
7 | c1ccc2c(NCCCCCCCCN3CCOCC3)c3c(nc2c1)CCCC3 | 0.0165 µM | 0.0428 µM | – | – | –
8 | c1ccc2c(c1)Cc1c-2nc2ccccc2c1NCCCCCCCNc1c2c(nc3ccccc13)-c1ccccc1C2 | 0.455 µM | 0.0286 µM | 27% | 0.4 µM | –
9 | c1ccc2c(NCCCCCCCCCCN3CCOCC3)c3c(nc2c1)CCCC3 | 0.0284 µM | 0.0147 µM | – | – | –
10 | c1ccc2c(NCCCCCCCCCN3CCOCC3)c3c(nc2c1)CCCC3 | 0.034 µM | 0.0381 µM | – | – | –
11 | Clc1ccc2c(NCCCCCCCOc3ccc(-c4cc5ccccc5o4)cc3)c3c(nc2c1)CCCC3 | 0.31 µM | 7.28 µM | – | – | –
12 | O=c1c2ccc(OCCCCCCCNc3c4c(nc5ccccc35)CCCC4)cc2oc2ncccc12 | 0.283 µM | 0.101 µM | – | – | –
